14 molecules from paper PMC10095864, “Targeting HIV-1 Reverse Transcriptase Using a Fragment-Based Approach” (Molecules, 2023) can be followed below.

Structures are written as SMILES.

The first assay concerns the target T1, recombinant WT HIV-1 RT (Human immunodeficiency virus type 1 group M subtype B, UniProt P03367).
T1 construct: The p66/p51 HIV-1 RT heterodimer engineered with a N-terminal histidine tag; His tag (histidine tag) (N); made in house; host or cells: Escherichia coli strain M15 (vector pRT6H-PR)
Kind of assay: biochemical. As to conditions: RT Inhibition—IC50 ± SEM, WT (PicoGreen assay), WT RT DDDP activity; nonradioactive PicoGreen assay. Here is the method:
The inhibitory activity of all compounds was evaluated in vitro in assays that measure the DNA-dependent DNA polymerase (DDDP) activity of HIV-1 RT. Compounds were tested against recombinant WT and drug-resistant HIV-1 RT mutants (K103N, Y181C or K103N/Y181C). […] The IC50 value of nevirapine was determined in parallel to control for the performance of the assay. […] These RT mutations either reduce the rate of entry of NNRTIs to the binding pocket (K103N) or remove aromatic interactions that favor binding (Y181C). Initially, compound IC50 values were determined in an assay that quantifies DDDP activity mediated by HIV-1 RT using a radiolabeled ^33PdTTP substrate and more recently using a nonradioactive PicoGreen-based spectrophotometric assay.
Recombinant HIV-1 RT: The p66/p51 HIV-1 RT heterodimer engineered with a N-terminal histidine tag was expressed from the pRT6H-PR vector (provided by Nicolas Sluis-Cremer) which is based on pRT6H-PROT [37], except that the RT coding region is derived from the infectious molecular clone xxLAI [38]. This xxLAI clone contains the HIV-1LAI backbone and is engineered with silent mutations introducing Xma I and Xba I sites in the RT coding region at nucleotide positions 40–45 and 1470 to 1475, respectively. pRT6H-PR expressing the NNRTI drug-resistant mutations K103N, Y181C and K103N/Y181C were generated by subcloning Xma I/Xba I fragments in xxLAI harboring the desired NNRTI mutations (Giacobbi NS and Sluis-Cremer 2017 AAC) into the corresponding restriction sites in the RT coding region of p6HRT-PR. RT was expressed in Escherichia coli strain M15 and purified using Ni-NTA chromatography as previously described. RT concentrations were determined spectrophotometrically at 280 nm using an extinction coefficient (e280) of 260, 450 M^−1 cm^−1.
Nevirapine was included in assays as a positive control for inhibiting RT polymerase activity. The DDDP assay was performed by first adding 25 ng of HIV-1 RT to test compound in 96-well plates followed by initiating RT polymerase activity by adding 200 ng of activated calf thymus (ACT) DNA (Sigma Aldrich), 0.2 µCi ^33P-α-dTTP (Perkin Elmer), 50 mM Tris-HCl pH 7.8 50 mM KCl, […], 50 µM dNTP mix (Bioline), 0.1 mg/mL bovine serum albumin (New England Biolabs), 0.01% IGEPAL (Sigma) and 1 mM dithiothreitol. Reactions contained 2.5% dimethyl sulfoxide (DMSO). Following incubation at 37 °C for 10 min, samples from duplicate wells were applied to Whatman DE81 ion-exchange paper (GE Healthcare); dried membranes were washed in 2X saline-sodium citrate (SSC) buffer; and incorporated counts were quantified using an FLP-2000 phosphorimager (Fujifilm) or Typhoon Trio Phosphorimager (GE Healthcare) as published. Dose–response curves were generated using PRISM GraphPad version 8 by plotting the log transformed drug concentrations against percentage inhibition of DDDP activity compared to the no drug control using non-linear regression analysis.
Non-radioactive DDDP Assay: DDDP assays were also performed using a PicoGreen based spectrophotometric assay to detect double-stranded DNA synthesized by recombinant HIV-1 RT [15]. Assays were performed as described for the […] DDDP assay except that instead of ACT, the reaction contained 40 nM of a template/primer comprising a 200 nt DNA template (5′-[…] […]-3′) annealed to a 18 nucleotide DNA primer (5′-[…]-3′), 50 mM Tris-HCl pH 7.8, 50 mM KCl, 10 mM MgCl2 and 50 µM dNTP mix.
On to `Cc1ccnc2c1NC(=O)c1cccnc1N2C1CC1` [Nevirapine, nevirapine, reference compound], for which the IC50 was 0.00044 ± 3e-05 mM.

For `CCOC(=O)c1cnn2c(C)ccc(Cl)c12` [compound 12, Ethyl 4-Chloro-7-methylpyrazolo[1,5-a]pyridine-3-carboxylate], the IC50 was > 1 mM.

As for `COC(=O)c1cnn2cccc(Br)c12` [compound 18, Methyl 4-Bromopyrazolo[1,5-a]pyridine-3-carboxylate], the IC50 was > 1 mM.

For the molecule `CCCOC(=O)c1cnn2cccc(Br)c12` [compound 19, Propyl 4-bromopyrazolo[1,5-a]pyridine-3-carboxylate], the half-inhibitory concentration (IC50) is > 1 mM.

Consider `O=C(NCCc1ccc(O)cc1)c1cnn2cccc(Br)c12` [compound 22, 4-Bromo-N-(4-hydroxyphenethyl)pyrazolo[1,5-a]pyridine-3-carboxamide], for which the IC50 came to 0.111 mM.

Staying with this assay, now noted: RT Inhibition—IC50 ± SEM, WT, WT RT DDDP activity; PicoGreen or 33P radiolabeled assay, value not marked as PicoGreen; n ≥ 2.
For the molecule `CCOC(=O)c1cnn2ccc(C)cc12` [compound 3, Ethyl 5-Methylpyrazolo[1,5-a]pyridine-3-carboxylate], the half-inhibitory concentration (IC50) was > 1 mM.

Take `CCOC(=O)c1cnn2cc(C)ccc12` [compound 4, Ethyl 6-Methylpyrazolo[1,5-a]pyridine-3-carboxylate]: the IC50 was > 1 mM.

Turning to `CCOC(=O)c1cnn2cc(Br)ccc12` [compound 7, Ethyl 6-Bromopyrazolo[1,5-a]pyridine-3-carboxylate], the half-maximal inhibitory concentration (IC50) was > 1 mM.

For `CCOC(=O)c1cnn2cc(Br)cc(OC)c12` [compound 13, Ethyl 6-Bromo-4-methoxypyrazolo[1,5-a]pyridine-3-carboxylate], the IC50 was > 1 mM.

For the molecule `CCOC(=O)c1cnn2ccc(C(=O)OC)cc12` [compound 15, 3-Ethyl 5-Methylpyrazolo[1,5-a]pyridine-3,5-dicarboxylate], the half-inhibitory concentration (IC50) was > 1 mM.

On to `CCOC(=O)c1cnn2ccc(NC(=O)OC(C)(C)C)cc12` [compound 16, Ethyl 5-((Tert-butoxycarbonyl)amino)pyrazolo[1,5-a]pyridine-3-carboxylate], for which the concentration for half-maximal inhibition (IC50) was > 1 mM.

With `CCNC(=O)c1cnn2cccc(Br)c12` [compound 20, 4-Bromo-N-ethylpyrazolo[1,5-a]pyridine-3-carboxamide], the IC50 was > 1 mM.

With `CCOC(=O)c1cnn2cccc(C#CCN(C)C)c12` [compound 24, Ethyl 4-(3-(Dimethylamino)prop-1-yn-1-yl)pyrazolo[1,5-a]pyridine-3-carboxylate], the half-maximal inhibitory concentration (IC50) was > 1 mM.

As for `CCOC(=O)c1cnn2cccc(C#CCCO)c12` [compound 25, Ethyl 4-(4-Hydroxybut-1-yn-1-yl)pyrazolo[1,5-a]pyridine-3-carboxylate], the IC50 was > 1 mM.

A word on the IC50: it is the concentration that gives 50% inhibition.
